Twelve compounds from US20080255206A1, “Rxr Agonists and Antagonists, Alone or in Combination with Ppar Ligands, in the Treatment of Metabolic and Cardiovascular Diseases” (priority 2005, published 2008) can be followed below.

One data set has as its target T1, RXRβ (Homo sapiens, UniProt P28702).
T1 construct: Full length RXR cDNA is used for transfection; expressed in transfected cells; host or cells: Schneider SL-3 cells (Drosophila)
T1 sequence (P28702 1-533): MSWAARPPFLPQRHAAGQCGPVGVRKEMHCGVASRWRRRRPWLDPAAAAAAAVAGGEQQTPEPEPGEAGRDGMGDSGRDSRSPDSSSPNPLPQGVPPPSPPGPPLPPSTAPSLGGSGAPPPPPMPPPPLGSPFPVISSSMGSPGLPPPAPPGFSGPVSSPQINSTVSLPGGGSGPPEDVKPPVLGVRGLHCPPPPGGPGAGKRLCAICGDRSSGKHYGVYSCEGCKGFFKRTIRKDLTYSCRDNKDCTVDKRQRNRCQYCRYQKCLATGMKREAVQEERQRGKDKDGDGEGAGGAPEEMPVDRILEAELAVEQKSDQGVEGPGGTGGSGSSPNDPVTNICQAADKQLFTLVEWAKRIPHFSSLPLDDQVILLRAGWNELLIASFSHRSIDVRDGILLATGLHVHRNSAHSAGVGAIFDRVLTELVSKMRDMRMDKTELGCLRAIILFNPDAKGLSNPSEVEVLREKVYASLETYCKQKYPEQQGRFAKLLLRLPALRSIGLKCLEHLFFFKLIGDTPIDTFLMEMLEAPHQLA
Nature of the data set: Retinoid activation assay, RXRβ (Schneider SL-3 cells, luciferase reporter). Conditions: read-out: Activation EC50 RXR β. The data set is classed as cell-based. As to the method:
Full length RXR cDNA is used for transfection. As reporter system, the luciferase gene is used in a construct with three copies of a RXR response element from rat CRBP gene, (formerly RARE from betaRAR gene), fused to alcoholdehydrogenase gene promoter in the plasmid pGL2-basic. Schneider SL-3 cells from Drosophila are transiently transfected 3-4 h before the experiment by the Ca-phosphate-DNA coprecipitation method. […] At the end of the incubation, the cell supernatants are assayed for luciferase activity. Results are given as EC50 (nM), the concentration leading to half-maximal activation.

The target in a further data set is T2, RARα (Homo sapiens, UniProt P10276).
T2 sequence (P10276 183-417 limits assumed): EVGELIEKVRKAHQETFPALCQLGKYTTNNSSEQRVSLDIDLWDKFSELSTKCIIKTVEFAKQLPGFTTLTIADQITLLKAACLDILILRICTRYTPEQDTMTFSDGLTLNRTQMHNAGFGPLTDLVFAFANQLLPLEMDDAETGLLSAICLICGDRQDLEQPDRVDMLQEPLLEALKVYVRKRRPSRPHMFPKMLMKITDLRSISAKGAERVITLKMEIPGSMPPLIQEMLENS
Nature of the data set: Retinoid activation assay, RARα (COS-1 cells, SeAP reporter). The data set is classed as cell-based. Conditions: read-out: Activation EC50 RAR α. As to the method:
Chimeric RAR cDNAs are used for transfection which contain the DNA binding region of the estrogen receptor. As reporter system, the SeAp (secreted alkaline phosphatase) gene under control of the vitellogenin estrogen response element fused to the herpes simplex thymidinkinase promoter (vit-TK-SeAP) is used. The galactosidase expression vector pCH110 serves to correct for variation in transfection efficiency. […] At the end of the incubation, the cell supernatants are assayed for SeAP activity. Results are given as EC50 (nM), the concentration leading to half-maximal activation.

Data set [1] has as its system healthy, non-inflamed human skin. Nature of the data set: Topical application on healthy human skin, clinical pilot trial. It is filed as in vivo. The note with it: for Irritation or inflammation of the skin: human volunteer, 1% concentration daily to the skin for 2 weeks; for Skin inflammation score (scale 0-4): day 17. On the set-up: key to Skin inflammation score (scale 0-4): 0: no signs or symptoms of skin inflammation; 1: slight erythema, desquamation and pruritus; 2: moderate erythema, desquamation and pruritus; 3: marked erythema, desquamation, pruritus/burning; 4: severe erythema, desquamation, pruritus, burning or even pain, edema, exsudation, ulceration. The text has this:
In a clinical pilot trial on one healthy volunteer compound 15 is applied epicutaneously in a concentration of 1% for its inflammation potential compared to that of the strong inflammation inducing agent 9-cis RA in concentrations of 0.1%, 0.3% and 1%.
The compounds are solved or suspended in ethanol/propylene glycol (1:1). They are applied epicutaneously twice daily, 7 days a week, for two concecutive weeks. The site of application is an area of 3×3=9 cm^2 on the abdominal skin. The volume is 0.1 ml per application.
The following signs and symptoms of skin inflammation are recorded: Erythema, desquamation (scaling), pruritus, burning, pain, exsudation, edema, ulceration. They are classified on a scale of: • 0=no signs or symptoms of skin inflammation • 1=slight erythema, desquamation and pruritus • 2=moderate erythema, desquamation and pruritus • 3=marked erythema, desquamation, pruritus/burning • 4=severe erythema, desquamation, pruritus, burning or even pain, edema, exsudation, ulceration
Treatment period lasts from day 1 to 14, the post-treatment observation period from day 15 to day 28.

On to `CC(/C=C/C1=C(c2ccc3c(c2)C(C)(C)CCC3(C)C)CCCC1)=C\C(=O)O` [Compound 6, (2E,4E)-3-Methyl-5-[2-(5,5,8,8-tetramethyl-5,6,7,8-tetrahydro-naphthalen-2-yl)-cyclohex-1-enyl]-penta-2,4-dienoic acid], for which, at RXRβ, the EC50 amounted to 1850 nM. As for `CCC1(CC)CCC(C)(C)c2cc(\C(C)=C/C=C/C(C)=C/C(=O)O)ccc21` [Compound 24, (2E,4E,6Z)-7-(5,5-Diethyl-8,8-dimethyl-5,6,7,8-tetrahydro-naphthalen-2-yl)-3-methyl-octa-2,4,6-trienoic acid], the EC50 on RXRβ was no less than 10000 nM; on RARα, 54 nM. Turning to `CCCCOc1c(\C(C)=C/C=C/C(C)=C/C(=O)O)cc(C(C)(C)C)cc1C(C)(C)C` [Compound 15, (2E,4E,6Z)-7-[2-butoxy-3,5-bis(1,1-dimethylethyl)phenyl]-3-methyl-2,4,6-octatrienoic acid], the “Skin inflammation (in words)” value is “well tolerated with no skin inflammation” in data set [1] (1% epicutaneously twice daily day 1-14, observation to day 28) and “does not induce any objective or subjective symptoms” in data set [1] (1% epicutaneously twice daily day 1-14, observation to day 28, listed as Compound A). The “Irritation or inflammation of the skin” value in data set [1] is given as “does not induce any irritation or inflammation of the skin”. Regarding `CC1=C(/C=C/c2sccc2/C=C/C(C)=C/C(=O)O)C(C)(C)CCC1` [Compound 5, (2E,4E)-3-Methyl-5-[2-[(E)-2-(2,6,6-trimethyl-1-cyclohexen-1-yl)ethenyl]-3-thienyl]-2,4-pentadienoic acid], the EC50 is 50 nM on RXRβ and 170 nM at RARα. For `CC1=C(/C=C/C2=C(/C=C/C(C)=C/C(=O)O)CCC2)C(C)(C)CCC1` [Compound 14, (2E,4E)-3-Methyl-5-[2-[(E)-2-(2,6,6-trimethyl-1-cyclohexen-1-yl)ethenyl]-1-cyclopenten-1-yl]-2,4-pentadienoic acid], the EC50 is 270 nM on RXRβ and 150 nM on RARα. As for `CC1=C(/C=C/C2=C(/C=C/C(C)=C/C(=O)O)CCCCC2)C(C)(C)CCC1` [Compound 1, (2E,4E)-3-methyl-5-[2-[(E)-2-(2,6,6-trimethyl-1-cyclohexen-1-yl)ethenyl]-1-cyclohepten-1-yl]-2,4-pentadienoic acid], in data set [1], the “Irritation or inflammation of the skin” value is “does not induce any irritation or inflammation of the skin”. With `C/C(=C/C=C/C(C)=C/C(=O)O)c1cc2c(cc1C)C(C)(C)CCCC2` [Compound 13, (2E,4E,6Z)-3-Methyl-7-(3,5,5,-trimethyl-6,7,8,9-tetrahydro-5H-benzocyclohepten-2-yl)-octa-2,4,6-trienoic acid], on RXRβ, the EC50 came out at 77 nM. For `CC(/C=C/c1sccc1-c1ccc2c(c1)C(C)(C)CCC2(C)C)=C\C(=O)O` [Compound 9], the EC50 on RARα is 2300 nM.

Turning to `CC(/C=C/C1=C(c2ccc3c(c2)C(C)(C)CCC3(C)C)CCC1)=C\C(=O)O` [Compound 12, (2E,4E)-3-Methyl-5-[2-(5,5,8,8-tetramethyl-5,6,7,8-tetrahydro-naphthalen-2-yl)-cyclopent-1-enyl]-penta-2,4-dienoic acid], the results for the EC50 at RXRβ and at RARα were 60 nM and 370 nM, respectively. For `CC(/C=C/c1ccccc1-c1ccc2c(c1)C(C)(C)CCC2(C)C)=C\C(=O)O` [Compound 7, (2E,4E)-3-methyl-5-[2-(5,5,8,8-tetramethyl-5,6,7,8-tetrahydro-naphthalen-2-yl)-phenyl]-penta-2,4-dienoic acid], on RXRβ, the EC50 was 330 nM. For `CC1=C(/C=C/C(C)=C\C=C\C(C)=C\C(=O)O)C(C)(C)CCC1` [9-cis RA, 9-cis retinoic acid, reference compound], the entries for the “Skin inflammation score (scale 0-4)” value in data set [1] (0.1% epicutaneously twice daily day 1-14), in data set [1] (0.3% epicutaneously twice daily day 1-14) and in data set [1] (1% epicutaneously twice daily day 1-14) were 1, 2 and 3, respectively. In addition, the “Skin inflammation (in words)” value in data set [1] (0.1% epicutaneously twice daily, days 12, 13 and 14) is given as “moderate inflammation”; in data set [1] (0.3% epicutaneously twice daily, days 12, 13 and 14) it was “moderate inflammation”; in data set [1] (1.0% epicutaneously twice daily, days 12, 13 and 14), “marked inflammation”.

Consider `CC1=C(C#CC2=C(/C=C/C(C)=C/C(=O)O)CCCCC2)C(C)(C)CCC1` [Compound 18], for which the EC50 on RXRβ is no less than 10000 nM.
